According to publication PMC4615133, “Click chemistry armed enzyme-linked immunosorbent assay to measure palmitoylation by hedgehog acyltransferase” (Analytical Biochemistry, 2015):

Target: T1, hedgehog acyltransferase (Hhat) (Homo sapiens, UniProt Q5VTY9)
T1 construct: Hhat-3C-FLAG-His8 (cDNA base pairs 4 to 1479), DDM-solubilized P100 membrane fraction from HEK293a cells
Test: stopped click-ELISA kinetics, apparent Km at […] Shh([…])
Assay type: cell-based

T1 sequence (Q5VTY9 2-493): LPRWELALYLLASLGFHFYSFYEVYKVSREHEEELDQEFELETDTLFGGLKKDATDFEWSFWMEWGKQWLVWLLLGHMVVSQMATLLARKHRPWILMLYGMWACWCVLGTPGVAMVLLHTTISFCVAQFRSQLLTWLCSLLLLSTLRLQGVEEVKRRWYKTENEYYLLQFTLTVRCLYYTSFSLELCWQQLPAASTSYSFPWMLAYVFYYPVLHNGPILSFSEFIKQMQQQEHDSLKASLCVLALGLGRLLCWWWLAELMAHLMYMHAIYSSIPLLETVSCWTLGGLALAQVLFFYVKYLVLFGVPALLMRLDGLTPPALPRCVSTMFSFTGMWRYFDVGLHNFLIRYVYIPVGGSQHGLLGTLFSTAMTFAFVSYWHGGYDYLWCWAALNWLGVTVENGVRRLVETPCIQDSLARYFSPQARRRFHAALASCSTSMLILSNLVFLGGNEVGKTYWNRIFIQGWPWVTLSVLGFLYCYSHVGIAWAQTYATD

Km: 0.15 ± 0.05 µM
SMILES: C#CCCCCCCCCCCCCC(=O)SCCNC(=O)CCNC(=O)[C@H](O)C(C)(C)COP(=O)(O)OP(=O)(O)OC[C@H]1O[C@@H](n2cnc3c(N)ncnc32)[C@H](O)[C@@H]1OP(=O)(O)O [YnC15-CoA]
